One may read the IC50 as the midpoint of a concentration-inhibition curve. A high value points to weaker potency.

For this experiment, the target named is T1, CFTR (Homo sapiens, UniProt P13569).
T1 construct: results in the phosphorylation and opening of CFTR anion channels; host or cells: Human colonic T84 cells
T1 sequence (P13569 whole entry): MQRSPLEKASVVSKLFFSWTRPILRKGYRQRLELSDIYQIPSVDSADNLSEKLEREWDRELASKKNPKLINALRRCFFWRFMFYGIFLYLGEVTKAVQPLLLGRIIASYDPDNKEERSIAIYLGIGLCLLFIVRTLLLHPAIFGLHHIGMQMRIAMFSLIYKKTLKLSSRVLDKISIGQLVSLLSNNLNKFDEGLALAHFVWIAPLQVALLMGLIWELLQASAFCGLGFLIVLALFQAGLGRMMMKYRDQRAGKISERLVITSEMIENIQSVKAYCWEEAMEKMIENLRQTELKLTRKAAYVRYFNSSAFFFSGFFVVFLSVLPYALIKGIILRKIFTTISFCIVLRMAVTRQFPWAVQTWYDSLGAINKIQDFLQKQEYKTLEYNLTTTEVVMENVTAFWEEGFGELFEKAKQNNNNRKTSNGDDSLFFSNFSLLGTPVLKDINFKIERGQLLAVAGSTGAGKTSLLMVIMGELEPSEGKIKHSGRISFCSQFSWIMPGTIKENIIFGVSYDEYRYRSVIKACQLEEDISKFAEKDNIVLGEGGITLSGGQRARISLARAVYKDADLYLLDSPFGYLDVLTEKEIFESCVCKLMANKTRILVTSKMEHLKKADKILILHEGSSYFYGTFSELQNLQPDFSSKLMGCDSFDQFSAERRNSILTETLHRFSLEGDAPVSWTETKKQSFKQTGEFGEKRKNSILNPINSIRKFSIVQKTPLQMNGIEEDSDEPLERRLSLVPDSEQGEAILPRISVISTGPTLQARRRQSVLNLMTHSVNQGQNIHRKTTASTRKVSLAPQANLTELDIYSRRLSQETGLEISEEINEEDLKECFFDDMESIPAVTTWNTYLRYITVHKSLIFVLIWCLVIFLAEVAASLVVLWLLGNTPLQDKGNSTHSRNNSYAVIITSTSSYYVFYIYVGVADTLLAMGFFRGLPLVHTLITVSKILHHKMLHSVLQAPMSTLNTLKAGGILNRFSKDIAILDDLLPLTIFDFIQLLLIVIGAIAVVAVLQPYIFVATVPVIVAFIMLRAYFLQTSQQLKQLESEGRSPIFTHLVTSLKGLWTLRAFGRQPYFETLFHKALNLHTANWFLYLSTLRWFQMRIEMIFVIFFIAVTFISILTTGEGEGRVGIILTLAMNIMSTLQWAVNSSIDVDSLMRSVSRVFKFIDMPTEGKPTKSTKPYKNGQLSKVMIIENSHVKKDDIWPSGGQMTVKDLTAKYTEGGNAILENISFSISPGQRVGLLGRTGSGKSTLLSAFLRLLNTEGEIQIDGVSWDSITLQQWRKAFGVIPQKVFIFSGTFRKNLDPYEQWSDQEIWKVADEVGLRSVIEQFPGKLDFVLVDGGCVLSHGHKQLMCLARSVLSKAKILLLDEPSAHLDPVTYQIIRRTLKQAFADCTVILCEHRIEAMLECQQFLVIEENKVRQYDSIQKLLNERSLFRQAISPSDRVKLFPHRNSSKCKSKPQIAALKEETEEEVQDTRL
Kind of experiment: T84 assay (FLIPR membrane potential dye, forskolin/IBMX-stimulated CFTR channel activity). It is filed as cell-based. The following applies: human colonic T84 cells, average of at least 2 runs unless otherwise indicated. The method, then: (§1) For example, Human colonic T84 cells can be acquired from the European Collection of Cell Cultures (ECACC) and grown in standard culture conditions as described by the supplier. On the day before assay 25,000 T84 cells per well are plated into standard black walled, clear bottom 384-well assay plates in standard growth medium consisting of DMEM:F12 with 10% FBS and incubated overnight. On the day of the assay the plates are washed using a standard assay buffer (HBSS with 10 mM Hepes) and incubated for 15 minutes in serum free cell culture medium before the addition of a commercially available membrane potential sensitive fluorescent dye (FLIPR Red membrane potential dye, Molecular Devices Corporation). T84 cells are incubated with the FLIPR Red membrane potential dye for 45 minutes in the presence and absence of test compound before being transferred to a commercially available fluorescence imaging plate reader (FLIPR384, Molecular Devices Corporation). Fluorescence levels are monitored continuously every second for 150 seconds; after an initial 10 second baseline, CFTR channel activity is stimulated through the addition of 10 μM forskolin in the presence of 100 μM of the phosphodiesterase inhibitor iso-butyl-methylxanthine (IBMX). Addition of the forskolin leads to the activation of intracellular adenylyl cylase 1, elevating cAMP levels and results in the phosphorylation and opening of CFTR anion channels. CFTR channel opening causes chloride ion efflux and subsequent depolarization of the cells, which is measured by an increase in fluorescence. CFTR inhibitor compounds prevent cell depolarization and the associated increase in fluorescence.
as §1, with “Human colonic” for “For example, Human colonic”, “T84 cells are acquired from” for “T84 cells can be acquired from”, “(ECACC) and are grown in” for “(ECACC) and grown in”
The molecule `O=C(O)CCCOc1c(-c2csc(C(=O)N3CCC(Cc4ccccc4)CC3)n2)cc(Br)c(O)c1Br` [Compound 89, 4-(6-(2-(4-Benzylpiperidine-1-carbonyl)thiazol-4-yl)-2,4-dibromo-3-hydroxyphenoxy)butanoic acid] showed a concentration for half-maximal inhibition (IC50) of 8.79 µM.
To `Cc1cccc(COc2c(-c3csc(C(=O)N4CCC(Cc5ccccc5)CC4)n3)cc(Br)c(O)c2Br)n1` [Compound 88, (4-benzylpiperidin-1-yl)(4-(3,5-dibromo-4-hydroxy-2-((6-methylpyridin-2-yl)methoxy)phenyl)thiazol-2-yl)methanone] belongs 15.5 µM; to `O=C(NCc1ccc(Oc2ccccc2)cc1)c1nc(-c2cc(Br)c(O)c(Br)c2O)cs1` [Compound 79, 4-(3,5-dibromo-2,4-dihydroxyphenyl)-N-(4-phenoxybenzyl)thiazole-2-carboxamide], 11.5 µM.
`O=C(NCc1cccc(OC(F)(F)F)c1)c1nc(-c2cc(Br)c(O)c(Br)c2O)cs1` [Compound 78, 4-(3,5-dibromo-2,4-dihydroxyphenyl)-N-(3-(trifluoromethoxy)benzyl)thiazole-2-carboxamide] yielded an IC50 of 2.56 µM. This IC50 lies about 4.5-fold lower than the previous one.
The molecule `COCCOCCOc1c(-c2csc(C(=O)N3CCC(Cc4ccccc4)CC3)n2)cc(Br)c(O)c1Br` [Compound 87, (4-benzylpiperidin-1-yl)(4-(3,5-dibromo-4-hydroxy-2-(2-(2-methoxyethoxy)ethoxy)phenyl)thiazol-2-yl)methanone] had an IC50 of 1.73 µM.
In the case of `O=C(NCc1ccc(Oc2ccccc2)cc1)c1nc(-c2cc(Br)c(O)c(Br)c2)cs1` [Compound 75, 4-(3,5-Dibromo-4-hydroxyphenyl)-N-(4-phenoxybenzyl)thiazole-2-carboxamide], the IC50 stood at 23.9 µM.
Regarding `O=C(c1nc(-c2cc(Br)c(O)c(Br)c2OCCN2CCOCC2)cs1)N1CCC(Cc2ccccc2)CC1` [Compound 86, (4-benzylpiperidin-1-yl)(4-(3,5-dibromo-4-hydroxy-2-(2-morpholinoethoxy)phenyl)thiazol-2-yl)methanone], inhibition was half-maximal at 3.03 µM (IC50).
The molecule `CN(Cc1cccc(C(F)(F)F)c1)C(=O)c1nc(-c2cc(Cl)c(O)c(Cl)c2)cs1` [Compound 67, 4-(3,5-Dichloro-4-hydroxyphenyl)-N-methyl-N-(3-(trifluoromethyl)benzyl)thiazole-2-carboxamide] returned a half-maximal inhibitory concentration (IC50) of 4.04 µM.
The molecule `O=C(c1nc(-c2cc(Cl)c(O)c(Cl)c2)cs1)N1CCN(c2cccc(C(F)(F)F)c2)CC1` [Compound 74, (4-(3,5-Dichloro-4-hydroxyphenyl)thiazol-2-yl)(4-(3-(trifluoromethyl)phenyl)piperazin-1-yl)methanone] had an IC50 of 20 µM.
The molecule `O=C(c1nc(-c2cc(Br)c(O)c(Br)c2)cs1)N1CCN(c2cccc(C(F)(F)F)c2)CC1` [Compound 73, (4-(3,5-Dibromo-4-hydroxyphenyl)thiazol-2-yl)(4-(3-(trifluoromethyl)phenyl)piperazin-1-yl)methanone] returned an IC50 of 12.3 µM. This IC50 is about 1.6-fold lower than that of the molecule before.
In turn, `O=C(NCc1ccc(Oc2ccccc2)cc1)c1nc(-c2cc(Cl)c(O)c(Cl)c2)cs1` [Compound 76, 4-(3,5-Dichloro-4-hydroxyphenyl)-N-(4-phenoxybenzyl)thiazole-2-carboxamide] returned an IC50 of 29.5 µM.
For `O=C(NCC(c1ccccc1)c1ccccc1)c1nc(-c2cc(Br)c(O)c(Br)c2O)cs1` [Compound 81, 4-(3,5-dibromo-2,4-dihydroxyphenyl)-N-(2,2-diphenylethyl)thiazole-2-carboxamide], the IC50 was 4.22 µM.
The molecule `O=C(NC(c1ccccc1)c1ccccc1)c1nc(-c2cc(Cl)c(O)c(Cl)c2)cs1` [Compound 69, N-Benzhydryl-4-(3,5-dichloro-4-hydroxyphenyl)thiazole-2-carboxamide] gave an IC50 of 6.51 µM.
The same measure for `O=C(NCc1cccc(OC(F)(F)F)c1)c1csc(-c2cc(Cl)c(O)c(Cl)c2)n1` [Compound 80, 2-(3,5-Dichloro-4-hydroxyphenyl)-N-(3-(trifluoromethoxy)benzyl)thiazole-4-carboxamide]: 15 µM.
The same measure for `O=C(NC(c1ccccc1)c1ccccc1)c1nc(-c2cc(Br)c(O)c(Br)c2)cs1` [Compound 71, N-Benzhydryl-4-(3,5-dibromo-4-hydroxyphenyl)thiazole-2-carboxamide]: 9.24 µM; for `CCOC(=O)CCCOc1c(-c2csc(C(=O)N3CCC(Cc4ccccc4)CC3)n2)cc(Br)c(O)c1Br` [Compound 83, Ethyl 4-(6-(2-(4-benzylpiperidine-1-carbonyl)thiazol-4-yl)-2,4-dibromo-3-hydroxyphenoxy)butanoate]: 4.2 µM.
`O=C(c1nc(-c2cc(Br)c(O)c(Br)c2)cs1)N1CCC(Cc2ccccc2)CC1` [Compound 72, (4-Benzylpiperidin-1-yl)[4-(3,5-dibromo-4-hydroxyphenyl)thiazol-2-yl]methanone] showed a half-maximal inhibitory concentration (IC50) of 11.1 µM.
`O=C(c1nc(-c2cc(Cl)c(O)c(Cl)c2)cs1)N1CCC(Cc2ccccc2)CC1` [Compound 70, (4-benzylpiperidin-1-yl)(4-(3,5-dichloro-4-hydroxyphenyl)thiazol-2-yl)methanone] gave an IC50 of 8.95 µM.
The same measure for `O=C(c1nc(-c2cc(Br)c(O)c(Br)c2O)cs1)N1CCC(Cc2ccccc2)CC1` [Compound 68, (4-Benzylpiperidin-1-yl)(4-(3,5-dibromo-2,4-dihydroxyphenyl)thiazol-2-yl)methanone]: 4.78 µM.
For `O=C(c1nc(-c2cc(Br)c(O)c(Br)c2O)cs1)N1CCN(c2cccc(C(F)(F)F)c2)CC1` [Compound 82, (4-(3,5-dibromo-2,4-dihydroxyphenyl)thiazol-2-yl)(4-(3-(trifluoromethyl)phenyl)piperazin-1-yl)methanone], the concentration for half-maximal inhibition (IC50) was 12.6 µM.

The record behind these values is patent publication US20100099677A1, “Compounds, Compositions and Methods Comprising Thiazole Derivatives” (Institute for OneWorld Health, priority 2008, published 2010).
